Measured values reported in PubChem BioAssay AID248 (DTP/NCI, 2004).
Values joined by “and” are separate entries in the source; they are usually repeats but may differ in a detail not shown here. Equal values may be shown once. Toxic doses and inconclusive results are not listed. Cut-off read from the data, not from the text of the source: active = T/C of 150% or more; inactive = T/C below 125%.

System: L1210 leukemia ip in BDF1 mice, survival T/C
Experiment: NCI In Vivo Anticancer Drug Screen. Data for tumor model L1210 Leukemia (intraperitoneal) in B6D2F1 (BDF1) mice
Conditions: endpoint: mean survival time, higher = longer survival
Method in brief: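 Each compound was tested against a transplantable tumor grown in mice. The endpoint was survival, with treated animals benchmarked against vehicle controls as a simple ratio.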

[1] = dose: 50.0 mg/kg/injection, schedule: Q01DX001 (ip), vehicle: carboxymethylcellulose (CMC)
[2] = dose: 100.0 mg/kg/injection, schedule: Q01DX001 (ip), vehicle: carboxymethylcellulose (CMC)
[3] = dose: 200.0 mg/kg/injection, schedule: Q01DX001 (ip), vehicle: carboxymethylcellulose (CMC)
[4] = dose: 400.0 mg/kg/injection, schedule: Q01DX001 (ip), vehicle: carboxymethylcellulose (CMC)
[5] = dose: 50.0 mg/kg/injection, schedule: Q01DX009 (ip), vehicle: Klucel (hydroxypropylcellulose) (HPC)
[6] = dose: 100.0 mg/kg/injection, schedule: Q01DX009 (ip), vehicle: Klucel (hydroxypropylcellulose) (HPC)
[7] = dose: 200.0 mg/kg/injection, schedule: Q04DX003 (ip), vehicle: saline with Tween-80
[8] = dose: 400.0 mg/kg/injection, schedule: Q04DX003 (ip), vehicle: saline with Tween-80
[9] = dose: 100.0 mg/kg/injection, schedule: Q01DX009 (ip), vehicle: saline
[10] = dose: 200.0 mg/kg/injection, schedule: Q01DX009 (ip), vehicle: saline
[11] = dose: 400.0 mg/kg/injection, schedule: Q01DX009 (ip), vehicle: saline
[12] = dose: 200.0 mg/kg/injection, schedule: Q01DX009 (ip), vehicle: Klucel (hydroxypropylcellulose) (HPC)
[13] = dose: 400.0 mg/kg/injection, schedule: Q01DX009 (ip), vehicle: Klucel (hydroxypropylcellulose) (HPC)

Measured: T/C

O=C(Nc1cccc(Cl)c1)Nc1ccc(Br)c(C(F)(F)F)c1
inactive: [1] 100 % of control | [2] 94 % of control | [3] 96 % of control | [4] 94 % of control

COC(=O)NCc1nc2cc3c[nH][nH]c3cc2n1
inactive: dose: 75.0 mg/kg/injection, schedule: Q01DX001 (ip), vehicle: carboxymethylcellulose (CMC) 91 % of control

Nc1nc(=S)c2[nH]c(N=Nc3ccc(S(=O)(=O)Nc4cnc5ccccc5n4)cc3)nc2[nH]1
inactive: dose: 25.0 mg/kg/injection, schedule: Q01DX009 (ip), vehicle: Klucel (hydroxypropylcellulose) (HPC) 112 % of control | [5] 109 % of control | [6] 91 % of control

CC1=NN(c2cccc(Cl)c2)C(=O)C1
inactive: dose: 50.0 mg/kg/injection, schedule: Q04DX003 (ip), vehicle: saline with Tween-80 105 % of control | dose: 100.0 mg/kg/injection, schedule: Q01DX009 (ip), vehicle: saline with Tween-80 93 % of control | dose: 100.0 mg/kg/injection, schedule: Q04DX003 (ip), vehicle: saline with Tween-80 94 % of control | dose: 200.0 mg/kg/injection, schedule: Q01DX009 (ip), vehicle: saline with Tween-80 106 % of control | [7] 96 % of control and 92 % of control | [8] 94 % of control

O=C1c2ccccc2-c2cc(Cl)c([N+](=O)[O-])cc21
inactive: [1] 98 % of control | [2] 96 % of control | [3] 98 % of control | [4] 91 % of control

CCOC(=O)c1cnc(SC)nc1Nc1ccccc1I
inactive: dose: 100.0 mg/kg/injection, schedule: Q04DX003 (ip), vehicle: Klucel (hydroxypropylcellulose) (HPC) 101 % of control | dose: 200.0 mg/kg/injection, schedule: Q04DX003 (ip), vehicle: Klucel (hydroxypropylcellulose) (HPC) 97 % of control | dose: 400.0 mg/kg/injection, schedule: Q04DX003 (ip), vehicle: Klucel (hydroxypropylcellulose) (HPC) 103 % of control

OC1CCC(CC2CCCCC2)CC1 (stereo not drawn)
inactive: [7] 92 % of control | [8] 91 % of control

CC1(C)CC=CC(COC(=O)c2ccccc2C(=O)O)C1 (stereo not drawn)
inactive: [2] 102 % of control | [3] 107 % of control | [4] 96 % of control

O=C(NCCCN1CCN(CCCNC(=O)c2cccnc2)CC1)c1cccnc1
inactive: dose: 6.25 mg/kg/injection, schedule: Q01DX009 (ip), vehicle: saline 92 % of control | dose: 12.5 mg/kg/injection, schedule: Q01DX009 (ip), vehicle: saline 93 % of control | dose: 25.0 mg/kg/injection, schedule: Q01DX009 (ip), vehicle: saline 97 % of control | dose: 50.0 mg/kg/injection, schedule: Q01DX009 (ip), vehicle: saline 101 % of control | [9] 109 % of control | dose: 150.0 mg/kg/injection, schedule: Q01DX009 (ip), vehicle: saline 100 % of control | dose: 225.0 mg/kg/injection, schedule: Q01DX009 (ip), vehicle: saline 109 % of control

COc1ccc(CN2CCCN(Cc3ccc(OC)cc3)C2c2ccncc2C)cc1
inactive: dose: 100.0 mg/kg/injection, schedule: Q01DX001 (ip), vehicle: acetone 96 % of control | dose: 200.0 mg/kg/injection, schedule: Q01DX001 (ip), vehicle: acetone 105 % of control | dose: 400.0 mg/kg/injection, schedule: Q01DX001 (ip), vehicle: acetone 96 % of control

CC(C)(O)C#CC(C)(C)O
inactive: [9] 115 % of control | [10] 110 % of control | [11] 110 % of control

O=C(Cc1ccccc1S(=O)(=O)Nc1ccccc1)c1ccccc1
inactive: dose: 100.0 mg/kg/injection, schedule: Q01DX001 (ip), vehicle: steriod suspending solution 96 % of control | dose: 200.0 mg/kg/injection, schedule: Q01DX001 (ip), vehicle: steriod suspending solution 86 % of control | dose: 400.0 mg/kg/injection, schedule: Q01DX001 (ip), vehicle: steriod suspending solution 91 % of control

CN(C)CC(=O)Nc1ccc(NC(=O)c2ccc(C(=O)Nc3ccc(NC(=O)CN(C)C)cc3)cc2)cc1
inactive: dose: 15.0 mg/kg/injection, schedule: Q01DX Z (ip), vehicle: methylcellulose (MC) 104 % of control | dose: 30.0 mg/kg/injection, schedule: Q01DX Z (ip), vehicle: methylcellulose (MC) 106 % of control | dose: 60.0 mg/kg/injection, schedule: Q01DX Z (ip), vehicle: methylcellulose (MC) 93 % of control | dose: 120.0 mg/kg/injection, schedule: Q01DX Z (ip), vehicle: methylcellulose (MC) 95 % of control

COc1ccc(OC)c(NC(=O)Nc2cc([N+](=O)[O-])ccc2OC)c1
inactive: [5] 101 % of control | [6] 97 % of control | [12] 111 % of control

CCOC(=O)c1ccccc1N=Nc1cc(OC)c(N)cc1OC
inactive: dose: 5.0 mg/kg/injection, schedule: Q01DX001 (ip), vehicle: other 101 % of control | dose: 10.0 mg/kg/injection, schedule: Q01DX001 (ip), vehicle: other 111 % of control | dose: 20.0 mg/kg/injection, schedule: Q01DX001 (ip), vehicle: other 114 % of control

CC(C)c1ccc(/C=C2\N=C(c3ccc([N+](=O)[O-])cc3)OC2=O)cc1
inactive: [6] 100 % of control | [12] 100 % of control | [13] 98 % of control

NNc1nc(Cl)nc(C(Cl)(Cl)Cl)c1Cl (tested in a mixture with another compound)
inactive: [5] 87 % of control | [6] 87 % of control | [12] 89 % of control

CCCCCCCCCCNC(C1=C(O)c2ccccc2C(=O)C1=O)c1ccccc1 (stereo not drawn)
inactive: dose: 25.0 mg/kg/injection, schedule: Q01DX001 (ip), vehicle: saline with Tween-80 89 % of control | dose: 100.0 mg/kg/injection, schedule: Q01DX001 (ip), vehicle: saline with Tween-80 89 % of control | dose: 400.0 mg/kg/injection, schedule: Q01DX001 (ip), vehicle: saline with Tween-80 86 % of control

CC1([N+](=O)[O-])COP(=O)(Nc2cccc(Br)c2)OC1 (stereo not drawn)
inactive: [2] 96 % of control | [3] 94 % of control | [4] 100 % of control

NNC(=S)Nc1cccc(Cl)c1
inactive: dose: 75.0 mg/kg/injection, schedule: Q01DX001 (ip), vehicle: saline 103 % of control | dose: 150.0 mg/kg/injection, schedule: Q01DX001 (ip), vehicle: saline 102 % of control

Cc1cc(N)nc(=O)n1C1OC(CO)C(O)C1O (stereo not drawn)
inactive: dose: 100.0 mg/kg/injection, schedule: Q01DX001 (ip), vehicle: saline 96 % of control | dose: 200.0 mg/kg/injection, schedule: Q01DX001 (ip), vehicle: saline 102 % of control | dose: 400.0 mg/kg/injection, schedule: Q01DX001 (ip), vehicle: saline 101 % of control

CC(=O)NCSCC(N)C(=O)O (stereo not drawn)
inactive: [9] 100 % of control | dose: 100.0 mg/kg/injection, schedule: Q04DX003 (ip), vehicle: saline 108 % of control | [10] 95 % of control | dose: 200.0 mg/kg/injection, schedule: Q04DX003 (ip), vehicle: saline 92 % of control | [11] 92 % of control | dose: 400.0 mg/kg/injection, schedule: Q04DX003 (ip), vehicle: saline 94 % of control

CCOP(=O)(Cc1ccc(N=Cc2cnc3nc(NC(C)=O)[nH]c(=O)c3n2)cc1)OCC
inactive: dose: 100.0 mg/kg/injection, schedule: Q01DX001 (ip), vehicle: other 98 % of control | dose: 200.0 mg/kg/injection, schedule: Q01DX001 (ip), vehicle: other 105 % of control | dose: 400.0 mg/kg/injection, schedule: Q01DX001 (ip), vehicle: other 96 % of control

CN(C)P(=O)(c1ccccc1)c1ccccc1
inactive: dose: 100.0 mg/kg/injection, schedule: Q04DX002 (ip), vehicle: saline with Tween-80 112 % of control | dose: 200.0 mg/kg/injection, schedule: Q04DX002 (ip), vehicle: saline with Tween-80 102 % of control | dose: 400.0 mg/kg/injection, schedule: Q04DX002 (ip), vehicle: saline with Tween-80 94 % of control

C#CC1(N2CCCCC2)CCCCC1
inactive: dose: 100.0 mg/kg/injection, schedule: Q04DX002 (ip), vehicle: Klucel (hydroxypropylcellulose) (HPC) 102 % of control | dose: 200.0 mg/kg/injection, schedule: Q04DX002 (ip), vehicle: Klucel (hydroxypropylcellulose) (HPC) 98 % of control

COc1ccc(Br)cc1C1(O)C2C=CC1CC2 (stereo not drawn)
inactive: [6] 102 % of control | [12] 102 % of control | [13] 98 % of control

ClC1=C(Cl)C2(Cl)CC(Cl)C1C2(Cl)Cl (stereo not drawn)
inactive: dose: 10.0 mg/kg/injection, schedule: Q01DX001 (ip), vehicle: acetone 105 % of control | dose: 20.0 mg/kg/injection, schedule: Q01DX001 (ip), vehicle: acetone 105 % of control
